How the values were obtained:
Recombinant JAK1 = biological target: T1, Recombinant JAK1 (Homo sapiens, UniProt P23458); assay: JAK biochemical assay (LANCE Ultra TR-FRET), JAK1; conditions: recombinant JAK1, TR-FRET; read-out: Biochemical Assay (μM) JAK1
T1 construct: purchased Carna Biosciences
How it was run: (§1)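 % inhibition relative to vehicle was derived from TR-FRET signal proportional to ULight-substrate phosphorylation. Reactions used recombinant kinase in HEPES pH 7.5 buffer containing EGTA, MgCl2, DTT and Tween-20.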

Recombinant JAK2 = biological target: T2, Recombinant JAK2 (Homo sapiens, UniProt O60674); assay: JAK biochemical assay (LANCE Ultra TR-FRET), JAK2; conditions: recombinant JAK2, TR-FRET; read-out: Biochemical Assay (μM) JAK2
T2 construct: purchased Carna Biosciences
T2 sequence (O60674 whole entry): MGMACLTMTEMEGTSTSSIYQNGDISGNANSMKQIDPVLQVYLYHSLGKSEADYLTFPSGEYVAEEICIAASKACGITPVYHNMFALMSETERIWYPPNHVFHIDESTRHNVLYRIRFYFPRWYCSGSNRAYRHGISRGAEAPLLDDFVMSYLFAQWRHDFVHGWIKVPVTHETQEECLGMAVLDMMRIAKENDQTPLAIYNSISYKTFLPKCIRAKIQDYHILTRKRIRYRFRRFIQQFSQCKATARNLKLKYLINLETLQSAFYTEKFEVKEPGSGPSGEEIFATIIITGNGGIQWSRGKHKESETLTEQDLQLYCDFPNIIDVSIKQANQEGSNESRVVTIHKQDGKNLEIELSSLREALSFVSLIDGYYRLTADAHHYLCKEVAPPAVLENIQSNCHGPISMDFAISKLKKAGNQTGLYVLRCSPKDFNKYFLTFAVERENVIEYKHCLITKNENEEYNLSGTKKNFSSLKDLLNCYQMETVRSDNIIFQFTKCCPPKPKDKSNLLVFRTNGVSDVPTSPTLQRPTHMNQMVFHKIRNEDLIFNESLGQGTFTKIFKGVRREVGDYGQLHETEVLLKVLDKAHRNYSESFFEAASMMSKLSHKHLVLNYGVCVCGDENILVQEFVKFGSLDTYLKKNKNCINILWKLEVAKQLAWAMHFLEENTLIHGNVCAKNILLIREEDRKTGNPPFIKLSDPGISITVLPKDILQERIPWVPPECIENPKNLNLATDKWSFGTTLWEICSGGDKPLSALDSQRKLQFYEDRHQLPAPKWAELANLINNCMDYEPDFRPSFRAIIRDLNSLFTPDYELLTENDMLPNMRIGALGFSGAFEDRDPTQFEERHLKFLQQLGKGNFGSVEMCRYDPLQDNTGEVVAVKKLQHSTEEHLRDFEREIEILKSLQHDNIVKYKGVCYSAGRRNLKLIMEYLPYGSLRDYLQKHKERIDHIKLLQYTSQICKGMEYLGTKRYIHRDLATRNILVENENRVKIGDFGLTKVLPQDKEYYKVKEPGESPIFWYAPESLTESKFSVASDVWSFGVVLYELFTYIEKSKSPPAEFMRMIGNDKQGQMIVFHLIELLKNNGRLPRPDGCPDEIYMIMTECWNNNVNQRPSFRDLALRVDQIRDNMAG
How it was run: as §1

Recombinant JAK3 = biological target: T3, Recombinant JAK3 (Homo sapiens, UniProt P52333); assay: JAK biochemical assay (LANCE Ultra TR-FRET), JAK3; conditions: recombinant JAK3, TR-FRET; read-out: Biochemical Assay (μM) JAK3
T3 construct: purchased Carna Biosciences
T3 sequence (P52333 1-1124): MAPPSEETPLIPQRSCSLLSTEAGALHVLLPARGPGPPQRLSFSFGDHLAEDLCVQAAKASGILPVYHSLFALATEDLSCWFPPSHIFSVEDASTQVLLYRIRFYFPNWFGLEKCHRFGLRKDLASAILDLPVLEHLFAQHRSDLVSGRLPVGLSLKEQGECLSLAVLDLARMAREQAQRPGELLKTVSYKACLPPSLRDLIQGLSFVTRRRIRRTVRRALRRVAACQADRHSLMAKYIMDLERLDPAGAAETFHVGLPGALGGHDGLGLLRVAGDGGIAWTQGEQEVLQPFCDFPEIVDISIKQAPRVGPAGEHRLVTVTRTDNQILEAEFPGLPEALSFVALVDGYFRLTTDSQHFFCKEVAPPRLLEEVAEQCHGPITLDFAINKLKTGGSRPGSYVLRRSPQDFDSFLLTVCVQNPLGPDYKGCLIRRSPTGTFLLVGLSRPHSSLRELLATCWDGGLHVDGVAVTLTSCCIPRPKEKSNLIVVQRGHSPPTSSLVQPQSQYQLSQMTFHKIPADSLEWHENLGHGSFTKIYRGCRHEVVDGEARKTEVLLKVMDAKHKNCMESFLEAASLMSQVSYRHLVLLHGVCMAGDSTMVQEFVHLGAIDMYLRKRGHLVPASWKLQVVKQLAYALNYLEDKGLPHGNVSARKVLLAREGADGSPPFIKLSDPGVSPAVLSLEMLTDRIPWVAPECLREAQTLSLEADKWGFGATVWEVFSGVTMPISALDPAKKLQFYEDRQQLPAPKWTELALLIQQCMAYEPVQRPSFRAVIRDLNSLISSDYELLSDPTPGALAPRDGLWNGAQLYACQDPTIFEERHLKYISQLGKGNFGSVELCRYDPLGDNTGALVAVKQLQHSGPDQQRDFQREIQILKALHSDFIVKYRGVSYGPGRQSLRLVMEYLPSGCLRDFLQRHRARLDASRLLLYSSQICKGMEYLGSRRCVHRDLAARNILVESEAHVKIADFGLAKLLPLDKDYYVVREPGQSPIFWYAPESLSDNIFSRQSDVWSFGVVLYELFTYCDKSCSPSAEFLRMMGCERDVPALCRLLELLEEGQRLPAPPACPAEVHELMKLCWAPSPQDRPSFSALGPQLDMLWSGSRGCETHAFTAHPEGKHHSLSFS
How it was run: as §1

Recombinant TYK2 = biological target: T4, Recombinant TYK2 (Homo sapiens, UniProt P29597); assay: JAK biochemical assay (LANCE Ultra TR-FRET), TYK2; conditions: recombinant TYK2, TR-FRET; read-out: Biochemical Assay (μM) TYK2
T4 construct: purchased Carna Biosciences
T4 sequence (P29597 whole entry): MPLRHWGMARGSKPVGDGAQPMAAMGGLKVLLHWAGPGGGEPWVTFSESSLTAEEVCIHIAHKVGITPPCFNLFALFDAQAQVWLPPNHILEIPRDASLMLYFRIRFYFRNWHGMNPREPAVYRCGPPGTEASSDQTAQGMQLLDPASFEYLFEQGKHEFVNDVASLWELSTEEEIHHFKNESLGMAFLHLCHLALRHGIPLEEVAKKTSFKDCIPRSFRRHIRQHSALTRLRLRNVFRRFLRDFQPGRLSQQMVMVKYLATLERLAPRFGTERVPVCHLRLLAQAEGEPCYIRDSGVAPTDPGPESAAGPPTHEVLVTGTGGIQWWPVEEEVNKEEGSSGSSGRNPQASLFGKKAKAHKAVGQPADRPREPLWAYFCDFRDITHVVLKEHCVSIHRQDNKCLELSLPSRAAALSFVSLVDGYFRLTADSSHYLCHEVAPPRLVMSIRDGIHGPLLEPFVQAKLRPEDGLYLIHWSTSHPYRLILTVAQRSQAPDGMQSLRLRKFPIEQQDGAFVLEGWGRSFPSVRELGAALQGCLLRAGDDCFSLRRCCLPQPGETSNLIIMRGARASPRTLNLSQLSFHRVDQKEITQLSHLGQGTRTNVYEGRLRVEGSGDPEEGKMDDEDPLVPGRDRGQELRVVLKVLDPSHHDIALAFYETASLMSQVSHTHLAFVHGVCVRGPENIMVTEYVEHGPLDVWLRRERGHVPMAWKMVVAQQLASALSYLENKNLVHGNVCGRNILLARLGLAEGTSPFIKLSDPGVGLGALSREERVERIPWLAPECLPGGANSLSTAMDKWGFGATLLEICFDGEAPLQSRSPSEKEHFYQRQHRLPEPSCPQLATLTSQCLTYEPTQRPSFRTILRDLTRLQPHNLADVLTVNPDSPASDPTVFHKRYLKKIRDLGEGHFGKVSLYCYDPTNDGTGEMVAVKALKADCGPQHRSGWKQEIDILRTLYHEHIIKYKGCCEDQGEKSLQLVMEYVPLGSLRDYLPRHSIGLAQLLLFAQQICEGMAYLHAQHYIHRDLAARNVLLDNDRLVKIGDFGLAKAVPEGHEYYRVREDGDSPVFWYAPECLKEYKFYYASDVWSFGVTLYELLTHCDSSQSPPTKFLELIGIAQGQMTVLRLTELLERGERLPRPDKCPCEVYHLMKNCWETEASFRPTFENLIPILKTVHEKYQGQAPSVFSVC
How it was run: as §1

[1] = system: STAT3 phosphorylation by IL-6 in TF-1 cells; assay: JAK cellular assay: STAT3 phosphorylation by IL-6 in TF-1 cells (HTRF); format: cell-based; conditions: Homo sapiens, TF-1, TF-1 cells, IL-6 30 ng/ml, pSTAT3 HTRF; read-out: Cell Based Assay (μM) TF-1/IL-6/pSTAT3
How it was run: (§2)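 Phospho-STAT3 (IL-6, 30 ng/ml) and phospho-STAT5 (GMCSF, 5 ng/ml) read by HTRF in lysates after 20 min cytokine exposure, minus unstimulated-cell background. Cells were serum-starved overnight, plated at 120,000/well, given compound 30 min at 37 °C beforehand; DMSO 0.2% final.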

[2] = system: STAT5 phosphorylation by GMCSF in TF-1 cells; assay: JAK cellular assay: STAT5 phosphorylation by GMCSF in TF-1 cells (HTRF); format: cell-based; conditions: Homo sapiens; TF-1 cells, GMCSF 5 ng/ml, pSTAT5 HTRF; read-out: Cell Based Assay (μM) TF-1/GMCSF/pSTAT5
How it was run: as §2

T1 sequence (P23458 whole entry): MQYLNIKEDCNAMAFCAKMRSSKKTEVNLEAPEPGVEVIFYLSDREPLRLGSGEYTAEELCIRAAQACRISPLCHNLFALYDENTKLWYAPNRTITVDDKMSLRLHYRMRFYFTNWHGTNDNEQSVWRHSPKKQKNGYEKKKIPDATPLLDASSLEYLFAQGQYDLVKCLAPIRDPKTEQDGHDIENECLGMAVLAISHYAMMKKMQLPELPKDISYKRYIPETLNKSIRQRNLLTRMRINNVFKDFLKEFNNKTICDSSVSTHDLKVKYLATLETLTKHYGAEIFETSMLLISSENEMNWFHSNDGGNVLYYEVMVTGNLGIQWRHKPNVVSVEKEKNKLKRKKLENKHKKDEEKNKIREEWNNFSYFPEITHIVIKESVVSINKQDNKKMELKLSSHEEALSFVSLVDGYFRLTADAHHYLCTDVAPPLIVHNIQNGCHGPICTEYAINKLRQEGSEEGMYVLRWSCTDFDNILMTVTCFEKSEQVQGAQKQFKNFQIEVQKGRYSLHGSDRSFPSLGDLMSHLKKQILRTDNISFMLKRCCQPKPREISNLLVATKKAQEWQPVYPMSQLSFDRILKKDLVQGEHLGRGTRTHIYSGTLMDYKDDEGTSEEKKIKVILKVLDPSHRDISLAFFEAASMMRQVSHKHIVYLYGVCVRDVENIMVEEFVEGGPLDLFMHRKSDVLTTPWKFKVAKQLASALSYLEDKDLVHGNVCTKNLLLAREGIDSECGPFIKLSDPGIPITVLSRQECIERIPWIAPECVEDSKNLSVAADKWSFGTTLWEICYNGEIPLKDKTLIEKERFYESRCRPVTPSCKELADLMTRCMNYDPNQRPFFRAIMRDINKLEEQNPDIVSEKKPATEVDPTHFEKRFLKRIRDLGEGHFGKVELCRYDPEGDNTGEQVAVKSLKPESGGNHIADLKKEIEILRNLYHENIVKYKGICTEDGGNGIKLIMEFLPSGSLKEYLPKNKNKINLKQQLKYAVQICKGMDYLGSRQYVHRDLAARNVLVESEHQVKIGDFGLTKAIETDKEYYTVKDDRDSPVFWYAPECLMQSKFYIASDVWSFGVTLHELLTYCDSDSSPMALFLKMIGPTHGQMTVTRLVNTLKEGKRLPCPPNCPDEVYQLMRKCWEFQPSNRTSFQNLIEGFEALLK

| SMILES | IC50 (Recombinant JAK1) [µM] | IC50 (Recombinant JAK2) [µM] | IC50 (Recombinant JAK3) [µM] | IC50 (Recombinant TYK2) [µM] | IC50 [1] [µM] | IC50 [2] [µM] |
| --- | --- | --- | --- | --- | --- | --- |
| CN(CCC(c1ccc(-n2cc(-c3ccnc4[nH]cnc34)cn2)nc1)C(F)(F)F)C1CC1 (stereo not drawn) [Example 1195, N-(3-(6-(4-(3H-imidazo[4,5-b]pyridin-7-yl)-1H-pyrazol-1-yl)pyridin-3-yl)-4,4,4-trifluorobutyl)-N-methylcyclopropanamine] | < 0.1 | < 0.1 | < 0.1 | > 1 | > 0.5 | > 1 |
| FC(F)(F)C(OCCNC1CC1)c1ccc(-n2cc(-c3ccnc4[nH]cnc34)cn2)nc1 (stereo not drawn) [Example 1197, N-(2-(1-(6-(4-(3H-imidazo[4,5-b]pyridin-7-yl)-1H-pyrazol-1-yl)pyridin-3-yl)-2,2,2-trifluoroethoxy)ethyl)cyclopropanamine] | < 0.1 | < 0.1 | < 0.1 | > 0.5 | > 0.3 | > 1 |
| CS(=O)(=O)NCC(c1ccc(-n2cc(-c3ccnc4[nH]cnc34)cn2)nc1)C(F)(F)F (stereo not drawn) [Example 1209] | < 0.1 | < 0.1 | < 0.1 | > 1 | > 0.75 | > 1 |
| CC(C)NC(=O)CCC(c1ccc(-n2cc(-c3ccnc4[nH]cnc34)cn2)nc1)C(F)(F)F (stereo not drawn) [Example 1210, 4-(6-(4-(3H-imidazo[4,5-b]pyridin-7-yl)-1H-pyrazol-1-yl)pyridin-3-yl)-5,5,5-trifluoro-N-isopropylpentanamide] | < 0.1 | < 0.1 | < 0.1 | > 1 | > 0.75 | > 1 |
| FC(F)(F)C(CNC1CC1)c1ccc(-n2cc(-c3ccnc4[nH]cnc34)cn2)nc1 (stereo not drawn) [Example 1212, N-(2-(6-(4-(3H-imidazo[4,5-b]pyridin-7-yl)-1H-pyrazol-1-yl)pyridin-3-yl)-3,3,3-trifluoropropyl)cyclopropanamine] | < 0.1 | < 0.1 | < 0.1 | > 0.5 | > 0.75 | > 1 |
| O=C(C1CC1)N1CCC(C(O)(c2ccc(-n3cc(-c4ccnc5[nH]cnc45)cn3)nc2)C(F)(F)F)CC1 (stereo not drawn) [Example 1220, (4-(1-(6-(4-(3H-imidazo[4,5-b]pyridin-7-yl)-1H-pyrazol-1-yl)pyridin-3-yl)-2,2,2-trifluoro-1-hydroxyethyl)piperidin-1-yl)(cyclopropyl)methanone] | < 0.1 | < 0.1 | < 0.1 | > 0.5 | > 1 | > 1 |

Second part, the compound after the results:

| IC50 (Recombinant JAK1) [µM] | IC50 (Recombinant JAK2) [µM] | IC50 (Recombinant JAK3) [µM] | IC50 (Recombinant TYK2) [µM] | IC50 [1] [µM] | IC50 [2] [µM] | SMILES |
| --- | --- | --- | --- | --- | --- | --- |
| < 0.1 | > 0.5 | < 0.1 | > 1 | > 0.5 | > 1 | FC(F)(F)C(CCN1CCOCC1)c1ccc(-n2cc(-c3ccnc4[nH]cnc34)cn2)nc1 (stereo not drawn) [Example 1201, 7-(1-(5-(1,1,1-trifluoro-4-morpholinobutan-2-yl)pyridin-2-yl)-1H-pyrazol-4-yl)-3H-imidazo[4,5-b]pyridine] |
| < 0.1 | > 0.1 | < 0.1 | > 0.5 | > 0.5 | > 1 | N#CC1CN(CCC(c2ccc(-n3cc(-c4ccnc5[nH]cnc45)cn3)nc2)C(F)(F)F)C1 (stereo not drawn) [Example 1202, 1-(3-(6-(4-(3H-imidazo[4,5-b]pyridin-7-yl)-1H-pyrazol-1-yl)pyridin-3-yl)-4,4,4-trifluorobutyl)azetidine-3-carbonitrile] |
| < 0.1 | < 0.1 | < 0.1 | > 0.5 | > 0.75 | > 1 | CN1CCN(CCC(c2ccc(-n3cc(-c4ccnc5[nH]cnc45)cn3)nc2)C(F)(F)F)CC1 (stereo not drawn) [Example 1219, 7-(1-(5-(1,1,1-trifluoro-4-(4-methylpiperazin-1-yl)butan-2-yl)pyridin-2-yl)-1H-pyrazol-4-yl)-3H-imidazo[4,5-b]pyridine] |

Reference: patent publication US12516056B2, “Compounds for inhibition of janus kinase 1” (MANKIND PHARMA LTD., priority 2019, dated 2026)
